# Measurements published in US20250073210A1, “Use of Ergothioneine for Enhancing Glutathione Level” (priority 2022, published 2025).
# Tests used:
# [1] = Preliminary cytotoxicity assay (WST-8 reduction, viability and morphological observations); type: cell-based, human; conditions: human
# Description: (§1) In the present study, the effects of compound L-Ergothioneine were investigated in normal human epidermal keratinocytes (NHEK) under basal or UV-irradiated conditions. More specifically, the effects of this compound were evaluated using RT-qPCR technology. Extracted mRNA was analyzed using a PCR array (“mQPA-8-Nrf2”) for the analysis of 8 target genes (including 1 housekeeping gene) selected for their role in Nrf2 pathway. Prior to this assay, a preliminary cytotoxicity assay was performed on compound L-Ergothioneine and Resveratrol (reference in basal condition) using a standard WST-8 reduction assay, in order to determine the concentrations to be tested in this study.
# (§2) Cell type: Normal human epidermal keratinocytes (NHEK) used at the 3rd passage. Culture conditions: 37° C., 5% CO2. Culture medium: Keratinocyte-SFM optimized for the assay, supplemented with Epidermal Growth Factor Pituitary extract. Assay medium: Keratinocyte-SFM optimized for the assay. Test compound: L-Ergothioneine in ultrapure water. Test concentrations: 0.5, 3 and 30 μM. Reference: Resveratrol. Test concentration: 20 μM.
# (§3) Cell type: NHEK in assay medium. Incubation time: 24 hours.
# (§4) After treatment, the cells were incubated with WST-8 (highly water-soluble tetrazolium salt) reduced in a water-soluble orange colored product (formazan) by succinate dehydrogenase (mitochondrial enzyme). This transformation is proportional to the number of living cells and their metabolic activity. The optical density (OD) of the extracts at 450 nm was recorded with a spectrometer (VERSAmax, Molecular Devices).
# [2] = test system: normal human epidermal keratinocytes (NHEK); experiment: as above; type: cell-based; conditions: human, 24 h
# Description: as §1, §2, §3, §4
# RPS28 = experiment: RT-qPCR PCR array mQPA-8-Nrf2, housekeeping gene RPS28; type: cell-based, human
# Description: as §1, §2
# (§5) Keratinocytes were seeded in 24-well plates and cultured for 24 hours in culture medium and in assay medium for a further 24 hours. The medium was then replaced by assay medium containing or not (control) the compound or Resveratrol and cells were pre-incubated for 24 hours.
# (§6) After pre-incubation, the medium was then removed and replaced by a PBS solution. For basal conditions, the plate was kept in the dark during the irradiation time. For irradiated conditions, the cells were irradiated with UVB−275 mJ/cm^2 (+UVA−2 J/cm^2) using a SOL500 Sun Simulator equipped with an H2 filter (Dr. Hönle, AG). After irradiation time, the treatments were renewed, and the cells were incubated for 24 hours. All experimental conditions were performed in n=3. At the end of incubation, the cells were washed in phosphate buffered saline (PBS) solution and immediately frozen at −80° C.
# (§7) The expression of markers was analyzed using RT-qPCR method on total RNA extracted from the cell monolayers of each experimental condition (before RNA extraction, the replicates of the same experimental condition were pooled). The analysis of transcripts was performed in n=2 using a PCR array dedicated to research and adapted to ‘screening’ format and targeting 8 genes selected for their role in Nrf2 pathway.
# (§8) Total RNA was extracted from each sample using TriPure Isolation Reagent® according to the supplier's instructions. The amount and quality of RNA were evaluated using capillary electrophoresis (Bioanalyzer 2100, Agilent technologies). The complementary DNA (cDNA) was synthetized by reverse transcription of total RNA in presence of oligo(dT) and «Transcriptor Reverse Transcriptase» (Roche Molecular System Inc.). The cDNA quantities were then adjusted before PCR.
# (§9) The PCR (Polymerase Chain Reaction) were performed using the «LightCycler®» system (Roche Molecular System Inc.) according to the supplier's instructions. The reaction mix (10 μl final) was prepared as follows: 2.5 μl of cDNA; primers (forward and reverse); reagent mix (Roche) containing taq DNA polymerase, SYBR Green I and MgCl2.
# (§10) The incorporation of fluorescence in amplified DNA was continuously measured during the PCR cycles. […] The value selected for RE calculations is the “output point” (Ct) of the fluorescence curve. For a considered marker, the highest is the cycle number; the lowest is the mRNA quantity. The RE value was calculated with the formula: (½^number of cycles)×10^6. The PCR array used in the present study included 1 reference gene (RPS28).
# NQO1 = experiment: RT-qPCR PCR array mQPA-8-Nrf2, NQO1 expression in NHEK; type: cell-based, human
# Description: as §1, §2, §5, §6, §7, §8, §9, §10
# HMOX1 = experiment: RT-qPCR PCR array mQPA-8-Nrf2, HMOX1 expression in NHEK; type: cell-based, human
# Description: as §1, §2, §5, §6, §7, §8, §9, §10
# MT1G = experiment: RT-qPCR PCR array mQPA-8-Nrf2, MT1G expression in NHEK; type: cell-based, human
# Description: as §1, §2, §5, §6, §7, §8, §9, §10
# TXN = experiment: RT-qPCR PCR array mQPA-8-Nrf2, TXN expression in NHEK; type: cell-based, human
# Description: as §1, §2, §5, §6, §7, §8, §9, §10
# TXNRD1 = experiment: RT-qPCR PCR array mQPA-8-Nrf2, TXNRD1 expression in NHEK; type: cell-based, human
# Description: as §1, §2, §5, §6, §7, §8, §9, §10
# GCLC = experiment: RT-qPCR PCR array mQPA-8-Nrf2, GCLC expression in NHEK; type: cell-based, human
# Description: as §1, §2, §5, §6, §7, §8, §9, §10
# GCLM = experiment: RT-qPCR PCR array mQPA-8-Nrf2, GCLM expression in NHEK; type: cell-based, human
# Description: as §1, §2, §5, §6, §7, §8, §9, §10
# Nrf2 pathway = experiment: Gene expression profile of keratinocytes (mQPA-8-Nrf2 array as a whole); type: cell-based, human
# Description: as §1, §2, §5, §6, §7
# [3] = UV-irradiated (UVB-275 mJ/cm^2 +UVA-2 J/cm^2), 0.5 μM
# [4] = UV-irradiated (UVB-275 mJ/cm^2 +UVA-2 J/cm^2), 3 μM
# [5] = UV-irradiated (UVB-275 mJ/cm^2 +UVA-2 J/cm^2), 30 μM
smiles,measurement,setting,value
"C[N+](C)(C)[C@@H](Cc1c[nH]c(=S)[nH]1)C(=O)[O-] [L-Ergothioneine, (2S)-3-(2-thioxo-2,3-dihydro-1H-imidazol-4-yl)-2-(trimethylammonio)-propanoate]","viability at 24 h, 2.2 µM",[1]; Viability (%),97%
same,"viability at 24 h, 6.7 µM",[1]; Viability (%),98%
same,"viability at 24 h, 20 µM",[1]; Viability (%),99%
same,"viability at 24 h, 60 µM",[1]; Viability (%),100%
same,"viability at 24 h, 180 µM",[1]; Viability (%),99%
same,"viability at 24 h, 540 µM",[1]; Viability (%),100%
same,"viability at 24 h, 1620 µM",[1]; Viability (%),89%
same,"viability at 24 h, 4860 µM",[1]; Viability (%),82%
same,"viability at 24 h, 2.2 µM",[1]; Viability Mean (%),100%
same,"viability at 24 h, 6.7 µM",[1]; Viability Mean (%),99%
same,"viability at 24 h, 20 µM",[1]; Viability Mean (%),99%
same,"viability at 24 h, 60 µM",[1]; Viability Mean (%),99%
same,"viability at 24 h, 180 µM",[1]; Viability Mean (%),97%
same,"viability at 24 h, 540 µM",[1]; Viability Mean (%),66%
same,"viability at 24 h, 1620 µM",[1]; Viability Mean (%),92%
same,"viability at 24 h, 4860 µM",[1]; Viability Mean (%),83%
same,Viability (%),[2]; 2.2 µM,105%
same,Viability (%),[2]; 6.7 µM,101%
same,Viability (%),[2]; 20 µM,102%
same,Viability (%),[2]; 180 µM,95%
same,Viability (%),[2]; 4860 µM,79%
same,RPS28 % Control RPS28,RPS28; [3],100 % Control
same,RPS28 % Control RPS28,RPS28; [4],100 % Control
same,RPS28 % Control RPS28,RPS28; [5],100 % Control
same,RPS28 % Control RPS28,"RPS28; basal conditions, 0.5 μM",100 % Control
same,RPS28 % Control RPS28,"RPS28; basal conditions, 3 μM",100 % Control
same,RPS28 % Control RPS28,"RPS28; basal conditions, 30 μM",100 % Control
same,NQO1 % Control RPS28,NQO1; [3],118 % Control
same,NQO1 % Control RPS28,NQO1; [4],136 % Control
same,NQO1 % Control RPS28,NQO1; [5],207 % Control
same,NQO1 % Control RPS28,"NQO1; basal conditions, 0.5 μM",127 % Control
same,NQO1 % Control RPS28,"NQO1; basal conditions, 3 μM",131 % Control
same,NQO1 % Control RPS28,"NQO1; basal conditions, 30 μM",155 % Control
same,HMOX1 % Control RPS28,HMOX1; [3],104 % Control
same,HMOX1 % Control RPS28,HMOX1; [4],109 % Control
same,HMOX1 % Control RPS28,HMOX1; [5],141 % Control
same,HMOX1 % Control RPS28,"HMOX1; basal conditions, 0.5 μM",86 % Control
same,HMOX1 % Control RPS28,"HMOX1; basal conditions, 3 μM",91 % Control
same,HMOX1 % Control RPS28,"HMOX1; basal conditions, 30 μM",98 % Control
same,MT1G % Control RPS28,MT1G; [3],81 % Control
same,MT1G % Control RPS28,MT1G; [4],94 % Control
same,MT1G % Control RPS28,MT1G; [5],102 % Control
same,MT1G % Control RPS28,"MT1G; basal conditions, 0.5 μM",113 % Control
same,MT1G % Control RPS28,"MT1G; basal conditions, 3 μM",99 % Control
same,MT1G % Control RPS28,"MT1G; basal conditions, 30 μM",115 % Control
same,TXN % Control RPS28,TXN; [3],89 % Control
same,TXN % Control RPS28,TXN; [4],99 % Control
same,TXN % Control RPS28,TXN; [5],101 % Control
same,TXN % Control RPS28,"TXN; basal conditions, 0.5 μM",87 % Control
same,TXN % Control RPS28,"TXN; basal conditions, 3 μM",83 % Control
same,TXN % Control RPS28,"TXN; basal conditions, 30 μM",98 % Control
same,TXNRD1 % Control RPS28,TXNRD1; [3],99 % Control
same,TXNRD1 % Control RPS28,TXNRD1; [4],97 % Control
same,TXNRD1 % Control RPS28,TXNRD1; [5],120 % Control
same,TXNRD1 % Control RPS28,"TXNRD1; basal conditions, 0.5 μM",75 % Control
same,TXNRD1 % Control RPS28,"TXNRD1; basal conditions, 3 μM",72 % Control
same,TXNRD1 % Control RPS28,"TXNRD1; basal conditions, 30 μM",82 % Control
same,GCLC % Control RPS28,GCLC; [3],106 % Control
same,GCLC % Control RPS28,GCLC; [4],126 % Control
same,GCLC % Control RPS28,GCLC; [5],181 % Control
same,GCLC % Control RPS28,"GCLC; basal conditions, 0.5 μM",111 % Control
same,GCLC % Control RPS28,"GCLC; basal conditions, 3 μM",118 % Control
same,GCLC % Control RPS28,"GCLC; basal conditions, 30 μM",140 % Control
same,GCLM % Control RPS28,GCLM; [3],76 % Control
same,GCLM % Control RPS28,GCLM; [4],86 % Control
same,GCLM % Control RPS28,GCLM; [5],86 % Control
same,GCLM % Control RPS28,"GCLM; basal conditions, 0.5 μM",95 % Control
same,GCLM % Control RPS28,"GCLM; basal conditions, 3 μM",97 % Control
same,GCLM % Control RPS28,"GCLM; basal conditions, 30 μM",98 % Control
same,Modulation of the gene expression profile of irradiated keratinocytes,"Nrf2 pathway; UVB (+UVA) irradiated, tested at 0.5, 3 and 30 μM",did not induce major modulations
same,"Effect on gene expression, basal keratinocytes","Nrf2 pathway; basal, lowest tested concentrations",no effect was observed
same,Modulation of the gene expression profile of basal keratinocytes,"Nrf2 pathway; basal, tested at 0.5, 3 and 30 μM",did not induce major modulations
same,"Effect on gene expression, irradiated keratinocytes","Nrf2 pathway; irradiated, lowest tested concentrations",no effect was observed
